Assay [1] concerns the target A-domain of BT NRPS Module 8 (Bt8A) (Brevibacillus texasporus, UniProt Q2VQ14). Nature of the assay: ATP-PPi exchange assay, Module 8 A-domain. Type of assay: biochemical. The note with it: for relative activation (highest activity = 100%): 0.5 mM amino acid. How it is done: (§1) Cloning, overexpression, and purification of His10-tagged BT A-domain proteins. DNA fragments encoding the A-domains of the BT NRPS Modules 8, 5, 7, 4 and 2 (Bt8A, 8t5A, Bt7A, Bt4A and Bt2A) were PCR-amplified and the PCR products were inserted into the His10-tag recombinant protein expression vector pET16b (Novagen). The A-domain borders were determined as defined by (Konz, et al., 1999). The expression constructs were transformed into the E. coli BL21-AI strain (Invitrogen). Transformants were grown in L-broth at 37° C. to an A600 of 0.6 and then induced with 1 mM IPTG (isopropyl-β-D-thiogalactopyranoside) plus 0.2% L-arabinose. The cells were allowed to grow for two additional hours at 30° C. before being harvested. Purification of the His10-tag recombinant proteins was achieved using the TALON metal affinity resins (BD Biosciences) under conditions recommended in the manual with modifications. Briefly, the E. coli cells were broken by sonication. Cell lysates were cleared by centrifugation at 25,000×g for one hour. His-tagged recombinant proteins were then incubated with the TALON resin, washed, and eluted with 500 mM imidazole. Eluted proteins were dialyzed against a buffer (50 mM HEPES, pH 8.0, 100 mM sodium chloride, 10 mM magnesium chloride, and 1 mM EDTA) and then analyzed with SDS PAGE plus Coomassie Blue staining. […] Concentrations of the purified proteins were determined by using the calculated molar extinction coefficient for the A280.
(§2) ATP-PPi exchange assay. ATP-PPi exchange assays were performed to determine the substrate specificity of an A-domain. ATP-PPi exchanges were assayed as previously described (Stachelhaus, et al., 1998) with minor modifications. The assay mixture contained 50 mM HEPES (pH 8.0), 100 mM NaCl, 10 mM MgCl2, 2 mM ATP, 0.5 mM amino acid, 0.05 mM PPi, 0.15 μCi tetrasodium [^32P]pyrophosphate. Exchange was initiated by addition of purified recombinant A-domain proteins to a total volume of 0.1 ml. The protein concentrations were 0.2 μM for Module 4 and Module 5 A-domains while 2 μM for Module 7 and Module 8 A-domains. […] The charcoal/water suspension was added to a scintillation vial containing 5.0 ml of scintillation fluid, and the bound radioactivity was determined by liquid scintillation counting. […]
(§3) Since a purified recombinant A-domain of an NRPS module can selectively and efficiently activate the cognate amino acid substrate of the NRPS module in an ATP-PPi exchange assay (Konz, et al., 1999; Mootz & Marahiel, 1997), ATP-PPi exchange assays have been used to experimentally establish NRPS module specificities and novel NRPS codons. […] A-domain specificities were determined in ATP-PPi exchange and aa Km assays (see Methods and Materials), and the results are shown in FIG. 5. […]

The target in assay [2] is A-domain of BT NRPS Module 4 (Bt4A) (Brevibacillus texasporus, UniProt Q2VQ15). In words: ATP-PPi exchange assay, Module 4 A-domain. Type of assay: biochemical. The note with it: for relative activation (highest activity = 100%): 0.5 mM amino acid. How it is done: as §1, §2, §3
In assay [3] the test system is A-domain of BT NRPS Module 2 (Bt2A). In words: ATP-PPi exchange assay, Module 2 A-domain. Type of assay: biochemical, Brevibacillus texasporus. The note with it: 0.5 mM amino acid. How it is done:
as §1
(§4) ATP-PPi exchange assay. ATP-PPi exchange assays were performed to determine the substrate specificity of an A-domain. ATP-PPi exchanges were assayed as previously described (Stachelhaus, et al., 1998) with minor modifications. The assay mixture contained 50 mM HEPES (pH 8.0), 100 mM NaCl, 10 mM MgCl2, 2 mM ATP, 0.5 mM amino acid, 0.05 mM PPi, 0.15 μCi tetrasodium [^32P]pyrophosphate. Exchange was initiated by addition of purified recombinant A-domain proteins to a total volume of 0.1 ml. The protein concentrations were 0.2 μM for Module 4 and Module 5 A-domains while 2 μM for Module 7 and Module 8 A-domains. After incubation at 37° C. for 15 min, the reaction was stopped by addition of 0.5 ml of Terminaton Mix (100 mM tetrasodium pyrophosphate, 3.5% HClO4, and 1.6% [w/v] activated charcoal). The charcoal was pelleted by centrifugation, washed first with 40 mM pyrophosphate plus 1.4% perchloric acid and then with water, and was re-suspended in 0.5 ml of water. The charcoal/water suspension was added to a scintillation vial containing 5.0 ml of scintillation fluid, and the bound radioactivity was determined by liquid scintillation counting. The apparent Km values were determined with substrate concentrations ranging from 0.1 to 10 mM.
(§5) Since a purified recombinant A-domain of an NRPS module can selectively and efficiently activate the cognate amino acid substrate of the NRPS module in an ATP-PPi exchange assay (Konz, et al., 1999; Mootz & Marahiel, 1997), ATP-PPi exchange assays have been used to experimentally establish NRPS module specificities and novel NRPS codons. Recombinant A-domains of Modules 8, 5, 7, 4 and 2 of the BT NRPS were produced and purified as described in Methods and Materials. Almost completely soluble recombinant A-domain proteins were obtained. A-domain specificities were determined in ATP-PPi exchange and aa Km assays (see Methods and Materials), and the results are shown in FIG. 5. […]

In assay [4] the target is A-domain of BT NRPS Module 5 (Brevibacillus texasporus, UniProt Q2VQ15). Nature of the assay: ATP-PPi exchange assay, Module 5 A-domain. Type of assay: biochemical. The note with it: for relative activation (highest activity = 100%): 0.5 mM amino acid; for Km: read-out: apparent Km. How it is done:
as §1, §4, §5

The target of assay [5] is A-domain of BT NRPS Module 7 (Bt7A) (Brevibacillus texasporus, UniProt Q2VQ15). Nature of the assay: ATP-PPi exchange assay, Module 7 A-domain. Type of assay: biochemical. The note with it: 0.5 mM amino acid.
In assay [6] the test system is straight run broilers. Nature of the assay: Growth and feed conversion of 3-wk old broilers in batteries, pelleted starter feed (Studies 3-1 and 3-2). Type of assay: in vivo, chicken. The note with it: BT1583 12 ppm, BMD 50 ppm, COB 90 ppm, alone or combined, pelleted feed. The text has this: Eight (8) study repetitions per treatment were used, again with 4 birds per pen.

In assay [7] the test system is broiler chickens. Nature of the assay: 42-day broiler floor pen trial with natural colibacillosis challenge. Type of assay: in vivo, chicken. The note with it: for Day 42 Feed/Gain / Day 42 Gain/Bird / Day 42 Mortality (%) / Day 42 Adjusted Feed/Gain: MON 99 ppm, BT1583 12 ppm, BMD 55 ppm; for Day 42 Feed/Gain / Day 42 Gain/Bird: alone or combined; for Day 42 Mortality (%): acute and chronic colibacillosis; for Day 42 Adjusted Feed/Gain: adjusted for weight of mortality. Here is the method:
A broiler floor pen trial to compare the performance of a new anti-microbial designated for this project as BT1583 alone and in combination with the widely used coccidiostat monensin (MON) to MON fed alone, MON in combination with the also widely used antimicrobial Bacitracin MD (BMD) and BMD alone.
The following levels of each treatment were evaluated:
The study design included 10 pens per treatment and 40 birds per pen housed on day of hatch. Two basal corn-soy based diets of decreasing protein (approximately 23 to 20%) and increasing metabolizable energy (approximately 1400 to 1455 kcal/lb) were used from Day 0 to 21 (starter feed) and Days 22 to 42 (grower feed), respectively. Treatment premixes were measured and blended into diets at required levels. Between days 0 and 21 mortality was less than 1% with all birds growing optimally and of high health across all groups.
Beginning on study day 22, the study director modulated house temperature and air flow to mimic industry conditions conducive to outbreaks of colibacillosis within naïve broiler flocks. This was done to stimulate a natural challenge for this study. Mortality climbed to a house average of approximately 10% by Day 42. A majority of these deaths occurred in groups not receiving BT1583 or MON. Lesions were consistent with those of colibacillosis (air sac, pneumonia, peri-hepatitis, peri-carditis and extreme morbidity). All mortality was documented (weight at death and post-mortem observations). All birds and feeds were weighed at 42 days. All remaining birds were euthanized on Day 42 by asphyxiation with the carcasses submitted for rendering.
The following variables were tested: Response Variables: Gain Per Bird, Feed Per Gain, Mortality (%), Adjusted Feed Per Gain. F test from One Way ANOVA with one blocking factor=location, at Day 42 using 0.05 level of significance.
All Response Variables: LSD T-test procedure for pair-wise comparisons with Type 1 error of means when ANOVA F ratio is significant, overall significance level of 0.05 used. Lines below means (see Table 30, below) indicate groups with insignificant differences in means.
Adjusted Feed/Gain: The total weight of mortality in each pen was added to the final live weight, that value reduced by subtracting the initial weight and then dividing that value into the Total feed consumed to calculate the Adjusted Feed/Gain.

We go through 8 compounds from US20090175981A1, “COMPOSITIONS, METHODS AND USES FOR A NOVEL FAMILY OF PEPTIDES” (priority 2004, published 2009).

“And” between values parts separate entries of the source, which are not always exact repeats. Identical values can stand only once. Marks after values point to notes of the source that are not given here.

Sequence of A-domain of BT NRPS Module 8 (Bt8A) (Q2VQ14 entry or part of it): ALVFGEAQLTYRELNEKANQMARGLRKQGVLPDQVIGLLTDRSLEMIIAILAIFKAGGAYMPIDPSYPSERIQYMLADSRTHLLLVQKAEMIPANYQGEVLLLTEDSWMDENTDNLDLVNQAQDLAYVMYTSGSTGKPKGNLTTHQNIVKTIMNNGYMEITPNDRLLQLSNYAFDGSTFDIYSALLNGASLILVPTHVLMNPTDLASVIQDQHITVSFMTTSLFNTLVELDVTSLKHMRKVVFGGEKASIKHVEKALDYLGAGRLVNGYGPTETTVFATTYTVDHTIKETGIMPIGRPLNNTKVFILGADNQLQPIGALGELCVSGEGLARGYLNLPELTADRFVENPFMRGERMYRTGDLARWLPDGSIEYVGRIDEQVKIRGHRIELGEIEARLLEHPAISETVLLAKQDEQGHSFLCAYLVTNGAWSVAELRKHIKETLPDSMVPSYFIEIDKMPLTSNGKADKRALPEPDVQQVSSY
Sequence of A-domain of BT NRPS Module 5 (Q2VQ15 entry or part of it): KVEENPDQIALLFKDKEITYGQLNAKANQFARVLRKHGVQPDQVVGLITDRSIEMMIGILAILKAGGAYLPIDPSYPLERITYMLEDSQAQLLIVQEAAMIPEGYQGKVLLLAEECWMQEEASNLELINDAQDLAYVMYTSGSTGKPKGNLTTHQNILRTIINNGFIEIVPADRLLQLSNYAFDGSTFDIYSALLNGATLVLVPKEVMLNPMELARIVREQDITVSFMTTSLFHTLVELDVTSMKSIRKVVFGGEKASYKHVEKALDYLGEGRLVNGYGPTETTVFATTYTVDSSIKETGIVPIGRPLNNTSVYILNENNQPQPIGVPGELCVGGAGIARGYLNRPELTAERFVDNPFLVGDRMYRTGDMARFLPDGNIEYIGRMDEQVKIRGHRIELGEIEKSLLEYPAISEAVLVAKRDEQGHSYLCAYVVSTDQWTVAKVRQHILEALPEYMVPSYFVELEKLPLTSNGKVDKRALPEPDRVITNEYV
Sequence of A-domain of BT NRPS Module 4 (Bt4A) (Q2VQ15 entry or part of it): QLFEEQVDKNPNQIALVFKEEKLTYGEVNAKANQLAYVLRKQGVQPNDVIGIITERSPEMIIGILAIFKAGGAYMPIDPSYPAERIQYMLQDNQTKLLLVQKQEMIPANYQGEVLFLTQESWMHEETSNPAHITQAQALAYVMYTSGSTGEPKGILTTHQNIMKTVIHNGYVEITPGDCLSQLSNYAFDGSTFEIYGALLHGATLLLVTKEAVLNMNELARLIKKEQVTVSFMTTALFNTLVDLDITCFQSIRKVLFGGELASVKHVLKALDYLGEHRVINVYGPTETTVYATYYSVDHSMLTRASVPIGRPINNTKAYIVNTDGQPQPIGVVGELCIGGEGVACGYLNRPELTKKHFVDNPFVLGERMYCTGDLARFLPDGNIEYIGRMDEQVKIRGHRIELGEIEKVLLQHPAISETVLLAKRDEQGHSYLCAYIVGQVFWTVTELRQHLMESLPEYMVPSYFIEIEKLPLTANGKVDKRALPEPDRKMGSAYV
Sequence of A-domain of BT NRPS Module 7 (Bt7A) (Q2VQ15 entry or part of it): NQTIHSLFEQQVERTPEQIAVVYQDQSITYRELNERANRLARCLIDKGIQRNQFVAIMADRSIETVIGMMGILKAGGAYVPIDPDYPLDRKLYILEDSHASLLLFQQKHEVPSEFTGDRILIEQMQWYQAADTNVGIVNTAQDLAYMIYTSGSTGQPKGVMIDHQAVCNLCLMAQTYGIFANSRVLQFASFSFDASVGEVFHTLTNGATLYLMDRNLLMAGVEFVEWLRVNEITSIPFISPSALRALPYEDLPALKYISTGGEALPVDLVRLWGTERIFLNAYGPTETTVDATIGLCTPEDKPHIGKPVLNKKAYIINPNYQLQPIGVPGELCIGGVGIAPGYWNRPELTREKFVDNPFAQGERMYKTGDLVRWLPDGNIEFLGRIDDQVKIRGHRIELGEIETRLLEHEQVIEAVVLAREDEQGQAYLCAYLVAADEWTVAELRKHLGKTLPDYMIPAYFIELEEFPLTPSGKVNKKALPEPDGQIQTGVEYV

In general, Km refers to the substrate concentration at which the rate is half of its maximum. `CC[C@H](C)[C@H](N)C(=O)O` [L-Ile]: the “relative activation (highest activity = 100%)” value in assay [1] is listed as 4%; in assay [2], 100%; in assay [3], 19%; in assay [4], 23%. In addition, the Km in assay [2] (read-out: apparent Km) is 500 µM; in assay [4], 2780 µM.

As for `CC(C)C[C@H](N)C(=O)O` [L-Leu], the figures for the “relative activation (highest activity = 100%)” value in assay [2], in assay [3] and in assay [4] were 7%, 98% and 17%, respectively.

Turning to `NCCCC[C@H](N)C(=O)O` [L-Lys], the “relative activation (highest activity = 100%)” value in assay [1] came out at 10%. The activation result in assay [5] was “only amino acid that activated”.

On to `CSCC[C@H](N)C(=O)O` [L-Met], for which, in assay [3], the “relative activation (highest activity = 100%)” value worked out at 100%.

Take `N[C@@H](Cc1ccccc1)C(=O)O` [L-Phe]: the “relative activation (highest activity = 100%)” value in assay [3] was found to be 3.5%.

On to `CC(C)[C@H](N)C(=O)O` [L-Val], for which the “relative activation (highest activity = 100%)” value in assay [1] came to 100%; in assay [2], 9%; in assay [3] it was 67%; in assay [4], 100%. For the same compound, the Km was found to be 2750 µM in assay [1] (read-out: apparent Km) and 1110 µM in assay [4].

As for `CC[C@@]1([C@@H]2O[C@@H]([C@H]3O[C@@](O)(CO)[C@H](C)C[C@@H]3C)C[C@@H]2C)CC[C@H]([C@]2(C)CC[C@]3(C[C@H](O)[C@@H](C)[C@@H]([C@@H](C)[C@@H](OC)[C@H](C)C(=O)O)O3)O2)O1` [Monensin, monensin], in assay [6], the “20-day cumulative feed conversion rate, Mean” value was 1.3712 and the “21-day cumulative feed conversion rate, Estimated Marginal Mean” value is given as 1.371. Moreover, the “21-day cumulative weight gain, Mean” value in assay [6] (listed as COB) was 792.8438 and 792.844. Also, in assay [7], the “Day 42 Feed/Gain” value is reported as 1.854^b, the “Day 42 Gain/Bird” value is given as 4.111^bcd lb, the “Day 42 Mortality (%)” value is reported as 8.00^a % and the “Day 42 Adjusted Feed/Gain” value is given as 1.761^b. In addition, the “mortality rate compared with non-supplemented controls” value in assay [7] (alone or in combination) is “lower mortality rates”.

As to Bacitracin MD [BMD, reference compound], in assay [6], the “20-day cumulative feed conversion rate, Mean” value is 1.3397; the “21-day cumulative feed conversion rate, Estimated Marginal Mean” value is reported as 1.340; the “21-day cumulative weight gain, Mean” value is 832.9688 and 832.969. In assay [7], the “Day 42 Feed/Gain” value is given as 2.147^c, the “Day 42 Gain/Bird” value is 3.971^cd lb, the “Day 42 Mortality (%)” value is 18.25^bc % and the “Day 42 Adjusted Feed/Gain” value is on record as 1.838^bc.
